Test results from US7163689B2, “Intravenous valproate for acute treatment of migraine headache” (priority 1999, dated 2007).
“Also recorded” adds a separate entry of the source.

Key:
[1] = test system: patients with prolonged moderate to severe migraine; test: Further expanded study (N=40): Depacon vs DHE preceded by metoclopramide, prolonged moderate to severe migraine (Example 3); assay type: in vivo, human; settings: for Headache Severity (group value, four grade rating) / Number of Patients Who Reported Nausea / Number of Patients Who Reported Phonophobia / Number of Patients Who Reported Photophobia / Responder Rate / Symptom Free patients (no headache or associated symptomatology), % / Symptom Free patients (no headache or associated symptomatology), number: N = 20 per group
From the text: This Example describes a further expanded study and analysis of the effectiveness of intravenous VPA for the treatment of acute migraine headache of significant duration. Patient data from the study described in Examples 1 and 2 have been incorporated and further analyzed in addition to new patient data. • Design and Methods. Participants (N=40) were from age 14 to 74 and were established patients of the Western New England Headache Clinic. Patients called to report the pressure of prolonged moderate to severe migraine. They had no evidence of conditions other than migraine to cause headache and were medically stable. […] Patients received a neurological and general physical examination and filled out a four grade baseline headache rating from developed by Western New England Headache Clinic (see Table 2). The patients then received either 500 mg Depacon™ over 15–30 minutes administered in 100 ccs D5W, or 1 mg DHE intramuscularly preceded by 10 mg metoclopramide intramuscularly. Headache severity and associated symptomatology were rated 1, 2, and 4 hours. Results. A total of 40 patients were randomized, 20 in the Depacon™ group and 20 in the DHE group. Table VII summarizes the number of patients in each group by severity of headache (moderate or severe), demographic data and medication assignment.

[2] = test system: patients with moderate to severe headaches of 24–72 hours duration; test: Expanded study: IV VPA vs DHE with metoclopramide IM, acute migraine headache (Example 2); assay type: in vivo, human; settings: 24-h
acute migraine headache = settings: at 2 hours after administration; cited from earlier work

SMILES	% of Patients Who Reported Nausea ([1]; 1 hour)	% of Patients Who Reported Phonophobia ([1]; 1 hour)	% of Patients Who Reported Photophobia ([1]; 1 hour)	% of Patients Who Reported Nausea ([1]; 2 hours)	% of Patients Who Reported Phonophobia ([1]; 2 hours)	% of Patients Who Reported Photophobia ([1]; 2 hours)	% of Patients Who Reported Nausea ([1]; 4 hours)	% of Patients Who Reported Phonophobia ([1]; 4 hours)	% of Patients Who Reported Photophobia ([1]; 4 hours)	% of Patients Who Reported Nausea ([1]; Baseline)	% of Patients Who Reported Phonophobia ([1]; Baseline)	% of Patients Who Reported Photophobia ([1]; Baseline)	Headache Severity (group value, four grade rating) ([1]; 1 hour)	Number of Patients Who Reported Nausea ([1]; 1 hour)	Number of Patients Who Reported Phonophobia ([1]; 1 hour)	Number of Patients Who Reported Photophobia ([1]; 1 hour)	Responder Rate ([1]; 1 hour)	Headache Severity (group value, four grade rating) ([1]; 2 hours)	Number of Patients Who Reported Nausea ([1]; 2 hours)	Number of Patients Who Reported Phonophobia ([1]; 2 hours)	further results
CN1C[C@H](C(=O)N[C@]2(C)O[C@@]3(O)[C@@H]4CCCN4C(=O)[C@H](Cc4ccccc4)N3C2=O)C[C@@H]2c3cccc4[nH]cc(c34)C[C@H]21 [DHE, dihydroergotamine]	42%	67%	75%	50%	67%	65%	50%	61%	55%	(60%)	90%	100%	1.5	5	12	15	45%	1.4	6	12	Number of Patients Who Reported Photophobia ([1]; 2 hours): 13; Responder Rate ([1]; 2 hours): 50%; Headache Severity (group value, four grade rating) ([1]; 4 hours): 1.2; Number of Patients Who Reported Nausea ([1]; 4 hours): 6; Number of Patients Who Reported Phonophobia ([1]; 4 hours): 11; Number of Patients Who Reported Photophobia ([1]; 4 hours): 11; Responder Rate ([1]; 4 hours): 60%; Headache Severity (group value, four grade rating) ([1]; Baseline): 2.6; Number of Patients Who Reported Nausea ([1]; Baseline): DHE 12; Number of Patients Who Reported Phonophobia ([1]; Baseline): 18; Number of Patients Who Reported Photophobia ([1]; Baseline): 20; Symptom Free patients (no headache or associated symptomatology), % ([1]; at 1 hour): 15%; Symptom Free patients (no headache or associated symptomatology), number ([1]; at 1 hour): 3; Symptom Free patients (no headache or associated symptomatology), % ([1]; at 2 hours): 25%; Symptom Free patients (no headache or associated symptomatology), number ([1]; at 2 hours): 5; Symptom Free patients (no headache or associated symptomatology), % ([1]; at 4 hours): 30%; Symptom Free patients (no headache or associated symptomatology), number ([1]; at 4 hours): 6; % experiencing Photophobia [2]: 20%; Photophobia ([2]; individual patient, presence): 0; subjects with good relief of acute migraine headache (acute migraine headache): 70–80%
CCCC(CCC)C(=O)[O-].[Na+] [Depacon, valproate sodium]	53%	74%	70%	53%	58%	50%	47%	53%	45%	75%	95%	100%	1.8	8	14	14	50%	1.5	8	11	adverse events ([1]; 20 patients receiving 500 mg Depacon given during 15 to 30 minutes infusion, sodium): remarkably free of adverse event; also recorded: no adverse events; Number of Patients Who Reported Photophobia ([1]; 2 hours): 10; Responder Rate ([1]; 2 hours): 60%; Headache Severity (group value, four grade rating) ([1]; 4 hours): 1.4; Number of Patients Who Reported Nausea ([1]; 4 hours): 7; Number of Patients Who Reported Phonophobia ([1]; 4 hours): 10; Number of Patients Who Reported Photophobia ([1]; 4 hours): 9; Responder Rate ([1]; 4 hours): 60%; Headache Severity (group value, four grade rating) ([1]; Baseline): 2.7; Number of Patients Who Reported Nausea ([1]; Baseline): 15; Number of Patients Who Reported Phonophobia ([1]; Baseline): 19; Number of Patients Who Reported Photophobia ([1]; Baseline): 20; Symptom Free patients (no headache or associated symptomatology), % ([1]; at 1 hour): 10%; Symptom Free patients (no headache or associated symptomatology), number ([1]; at 1 hour): 2; Symptom Free patients (no headache or associated symptomatology), % ([1]; at 2 hours): 15%; Symptom Free patients (no headache or associated symptomatology), number ([1]; at 2 hours): 3; Symptom Free patients (no headache or associated symptomatology), % ([1]; at 4 hours): 25%; Symptom Free patients (no headache or associated symptomatology), number ([1]; at 4 hours): 5; response of associated symptomatology compared with the DHE group ([1]; baseline, 1, 2 and 4 hours, P>0.05): responded somewhat better, although not statistically significantly; % experiencing Photophobia [2]: 60%
